Patent publication US6593311B2, “Apoptosis inducers” (Takara Shuzo Co., Ltd., priority 1996, dated 2003)
Numbered stars: 1 amine (or outer) side, 2 acyl side, 3 side chain; on linkers, the order of the positions; unused ones are H or OH. Bridge positions count the residues as written; N and C are the ends. Square brackets hold non-standard residues; d marks the D form. Peptide text beside a SMILES is read from it. I, II: the chains in the order shown. Actinocin(9to1) = Cc1c2oc3c(C)ccc(C(=O)[*:1])c3nc-2c(C(=O)[*:2])c(N)c1=O; NMeV = CN[C@H](C(=O)O)C(C)C; Sar = CNCC(=O)O

Assays:
[1] = system: Human premyelocytic leukemia cells HL-60; experiment: Viable count (Trypan Blue) and microscopic morphology of HL-60 cells; assay type: cell-based; details: Example 25; 10 μg/ml solution of actinomycin D; 20 hours
[2] = system: Human premyelocytic leukemia cells HL-60; experiment: DNA ladder detection by agarose gel electrophoresis in HL-60 cells
[3] = system: Human acute lymphatic leukemia cells MOLT-3; experiment: DNA ladder detection by agarose gel electrophoresis in MOLT-3 cells; details: Example 23; 10 μg/ml solution of actinomycin D; 20 hours
[4] = system: Human acute lymphatic leukemia cells MOLT-3; experiment: Viable count (Trypan Blue) of MOLT-3 cells; assay type: cell-based; details: Example 24
Description: Then the suspension was pipetted into a 24-well plate (mfd. by FALCON) at a ratio of 1.8 ml/well. […] As a control, PBS alone was added in the same amount and incubation was effected in the same manner. 2, 4, 6 and 8 days after the initiation of the incubation, the cells were counted by the Trypan Blue staining method.
In this figure, the abscissa refers to the incubation time (day) while the ordinate refers to the viable count (×10^4 cells /2 ml) in the culture medium. In FIG. 28, the open circle stands for the control (no addition), the solid circle stands for the sulfated-fucose-containing polysaccharide-F obtained in Example 12, the open square stands for the sulfated-fucose-containing polysaccharide obtained in Example 1, the open triangle stands for that obtained in Example 17 and the solid square stands for that obtained in Example 15.

[5] = system: Human colonic cancer cells HCT 116; experiment: Viable count (Trypan Blue) and morphology of HCT 116 cells; assay type: cell-based; details: Example 28; for cell morphology (characteristics of apoptosis) / change in cell count / viable count versus incubation time curve (FIG. 29): 0.5 mg/ml, autoclaved; for change in cell count / viable count versus incubation time curve (FIG. 29): 1 to 4 days; for effects of inducing apoptosis, filter-treated samples: 5 mg/ml solutions in PBS treated with a filter
Description: Then the suspension was pipetted into a 24-well plate (mfd. by FALCON) at a ratio of 1.8 ml/well. […] As a control, PBS alone was added in the same amount and incubation was effected in the same manner. 1, 2, 3 and 4 days after the initiation of the incubation, the viable cells were counted in accordance with the method described in “Soshiki Baiyo no Gijutsu” (second ed.), Asakura Shuppan, ed. by Nippon Soshiki Baiyo Gakkai, 26-28 (1990), namely, by the Trypan Blue staining method on a counting chamber.
In this figure, the abscissa refers to the incubation time (day) while the ordinate refers to the viable count (×10^4 cells /2 ml) in the culture medium. In FIG. 29, the open circle stands for the control (no addition), the solid circle stands for the sulfated-fucose-containing polysaccharide preparation obtained in Example 1 and the solid square stands for the sulfated-fucose-containing polysaccharide mixture obtained in Example 1.
Then the suspension was pipetted into a 24-well plate (mfd. by FALCON) at a ratio of 1.8 ml/well. […] As a control, PBS alone was added in the same amount and incubation was effected in the same manner. After the initiation of the incubation, the viable cells were counted with the passage of time in accordance with the method described in “Soshiki Baiyo no Gijutsu” (second ed.), Asakura Shuppan, ed. by Nippon Soshiki Baiyo Gakkai, 26-28 (1990), namely, by the Trypan Blue staining method on a counting chamber.

| Compound | cell morphology (shrinkage and fragmentation) [1] | DNA ladders ([2]; Example 20, 10 μg/ml solution of actinomycin D, 20 hours) | DNA ladders ([2]; Example 35, Actinomycin D as substitute for F-Fd-4) | DNA ladders [3] | effects of inducing apoptosis, autoclaved samples ([4]; 0.5 mg/ml in PBS, autoclave 121° C. 20 minutes) | apoptosis induction and growth inhibition (viable count, FIG. 28) ([4]; 0.2 ml of 0.5 mg/ml solution per 1.8 ml well (text: concentration of 0.5 mg/ml), 2, 4, 6 and 8 days) | viable count versus incubation time curve (FIG. 28) ([4]; 2 to 8 days) | cell morphology (characteristics of apoptosis) [5] | change in cell count [5] | viable count versus incubation time curve (FIG. 29) [5] | effects of inducing apoptosis, filter-treated samples [5] |
| --- | --- | --- | --- | --- | --- | --- | --- | --- | --- | --- | --- |
| Cc1c2oc3c(C)ccc(C(=O)N[C@@H]4C(=O)N[C@H](C(C)C)C(=O)N5CCC[C@H]5C(=O)N(C)CC(=O)N(C)[C@@H](C(C)C)C(=O)O[C@@H]4C)c3nc-2c(C(=O)N[C@@H]2C(=O)N[C@H](C(C)C)C(=O)N3CCC[C@H]3C(=O)N(C)CC(=O)N(C)[C@@H](C(C)C)C(=O)O[C@@H]2C)c(N)c1=O [actinomycin D] (I: T[dV]P[Sar][NMeV] / II: T[dV]P[Sar][NMeV]; ester I:1-I:C, II:1-II:C; linker I:N-II:N via Actinocin(9to1)) | the shrinkage and fragmentation of the cells were observed | DNA ladders were observed | DNA ladders were observed | DNA ladders were observed |  |  |  |  |  |  |  |
| dextran sulfate |  |  |  |  | the same results were obtained | induce the apoptosis of the MOLT-3 cells and considerably inhibit the growth of these cells | substantially the same curve as the one obtained by using the sulfated-fucose-containing polysaccharide of Example 15 | showed characteristics of apoptosis such as the shrinkage and fragmentation of the cells | little increase or a decrease in cell count | substantially the same curve as the one of the sulfated-fucose-containing polysaccharide preparation of Example 1 | the same results were obtained |
| heparin |  |  |  |  |  |  |  | showed characteristics of apoptosis such as the shrinkage and fragmentation of the cells | little increase or a decrease in cell count | substantially the same curve as the one of the sulfated-fucose-containing polysaccharide preparation of Example 1 | the same results were obtained |
